From patent US10144737B2 (ETERNITY BIOSCIENCE INC., priority 2014, dated 2018)

Assays:
TMD-8 cells = assay: Cell proliferation assay (CellTiter-Glo), TMD-8 cells; assay type: cell-based; conditions: Homo sapiens, TMD8, 120 h, 5-day treatment, read-out: TMD8 cell growth (GI50 μM)
Description: Cell proliferation assay: TMD-8 and SU-DHL-1 cells were maintained at 37° C. in a humidified atmosphere with 5% CO2 in the recommended medium and serum concentrations. For cell proliferation assay, cells were seeded in 96-well pates at a density of 5,000 to 10,000 cells per well and cultured overnight at 37° C. in recommended medium supplemented with 5-10% FBS. On the next day, the test articles at various concentrations or vehicle control (0.5% DMSO) were added into cell culture. After 5-day treatment, the growth of cells was assayed by the CellTiter-Glo® Luminestceaent Cell Viability Assay (Promega). IC50 values were calculated using GraphPad Prism by plotting the logarithm of the concentration versus percent inhibition of cell growth as compared with the vehicle control.

Btk = target: T1, Btk (Homo sapiens, UniProt Q06187); assay: Btk kinase assay (ADP-Glo); assay type: biochemical; conditions: ADP-Glo Btk kinase assay kit; ATP 1.2 μM; 60 minutes at room temperature
T1 construct: purchased Promega (Madison, Wis.)
Description: Btk kinase assay—The Btk kinase assay was performed using a ADP-Glo Btk kinase assay kit purchased from Promega (Madison, Wis.). The assay was conducted according to the protocols provided in the assay kit. In brief, the enzyme reaction was carried out in the kinase reaction buffer containing Btk (2 ng/μl), ATP (1.2 μM), poly GT peptide (0.3 μM), DTT (40 nM), MnCl2 (1.4 mM), and 1 xkinase buffer (included in the kit) in the presence or absence of the tested articles at various concentrations in 384-well plate at room temperature (22±1° C.) for 60 minutes. The final reaction volume for each reaction was 10 μl. Then, 4 μl of ADP-Glo reagent (included in the kit) was added into the reaction and the plate was further incubated for another 40 minutes to terminate the reaction and deplete the remaining ATP. Finally, 10 μl of the kinase detection reagent was added into each reaction to simultaneously convert ADP to ATP and allow the newly synthesized ATP to be measured by a plate-reading luminometer (Victor X5 2030 multilabel reader, PerkinElmer). IC50 value was calculated using appropriate programs in GraphPad Prism by plotting the logarithm of the concentration versus percent inhibition as compared with a vehicle (DMSO) control.

T1 sequence (Q06187 whole entry): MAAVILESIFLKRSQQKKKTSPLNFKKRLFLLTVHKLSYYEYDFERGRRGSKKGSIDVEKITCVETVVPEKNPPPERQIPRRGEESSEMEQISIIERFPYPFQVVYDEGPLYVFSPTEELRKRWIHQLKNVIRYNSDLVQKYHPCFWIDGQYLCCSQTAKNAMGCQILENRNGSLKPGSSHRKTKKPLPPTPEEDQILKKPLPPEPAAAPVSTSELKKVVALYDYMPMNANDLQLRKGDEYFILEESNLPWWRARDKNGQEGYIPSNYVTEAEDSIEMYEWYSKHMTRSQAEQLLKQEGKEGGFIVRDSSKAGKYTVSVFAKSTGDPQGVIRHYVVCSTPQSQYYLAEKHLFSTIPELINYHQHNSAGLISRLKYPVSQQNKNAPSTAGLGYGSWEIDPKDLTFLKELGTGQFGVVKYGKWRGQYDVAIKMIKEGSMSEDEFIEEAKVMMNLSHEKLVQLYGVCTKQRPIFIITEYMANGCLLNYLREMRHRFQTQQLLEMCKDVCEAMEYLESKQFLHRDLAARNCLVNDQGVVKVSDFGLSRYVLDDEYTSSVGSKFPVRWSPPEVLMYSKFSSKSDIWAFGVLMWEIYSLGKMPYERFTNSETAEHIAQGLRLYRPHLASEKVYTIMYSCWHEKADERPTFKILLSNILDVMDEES

IC50 (Btk) [nM] | SMILES | GI50 (TMD-8 cells) [µM]
8 | C=CC(=O)N1CC[C@@H](Nc2ncnc3[nH]c(C#CCOc4cccc(F)c4F)cc23)C1 [Example 91, (R)-1-(3-((6-(3-(2,3-difluorophenoxy)prop-1-yn-1-yl)-7H-pyrrolo[2,3-d]pyrimidin-4-yl)amino)pyrrolidin-1-yl)prop-2-en-1-one] | 0.0015
4 | CN(C)C/C=C/C(=O)N1CCC(Nc2ncnc3[nH]c(C#CCOc4ccc(Cl)cc4)nc23)C1 (centres unmarked) [Example 21, (E)-1-(3-((8-(3-(4-chlorophenoxy)prop-1-yn-1-yl)-9H-purin-6-yl)amino)pyrrolidin-1-yl)-4-(dimethylamino)but-2-en-1-one] | 1.8
7.2 | C=CC(=O)N1CC[C@@H](Nc2ncnc3[nH]c(C#Cc4ccc(Cl)c(F)c4)cc23)C1 [Example 70, (R)-1-(3-((6-((3-fluoro-4-chlorophenyl)ethynyl)-7H-pyrrolo[2,3-d]pyrimidin-4-yl)amino)pyrrolidin-1-yl)prop-2-en-1-one] | 0.0013
23 | C=CC(=O)N1CC[C@@H](Nc2ncnc3[nH]c(C#Cc4ccc(OC)cc4)cc23)C1 [Example 53, (R)-1-(3-((6-((4-methoxyphenyl)ethynyl)-7H-pyrrolo[2,3-d]pyrimidin-4-yl)amino)pyrrolidin-1-yl)prop-2-en-1-one] | 0.006
257 | C=CC(=O)N1CCN(c2ncnc3[nH]c(C#CCOC)cc23)CC1 [Example 5, 1-(4-(6-(3-methoxyprop-1-yn-1-yl)-7H-pyrrolo[2,3-d]pyrimidin-4-yl)piperazin-1-yl)prop-2-en-1-one] | 1.66
2.3 | CNC/C=C/C(=O)N1CCN(c2ncnc3[nH]c(C#CCOc4ccccc4)cc23)CC1 [Example 3, (E)-4-(methylamino)-1-(4-(6-(3-phenoxyprop-1-yn-1-yl)-7H-pyrrolo[2,3-d]pyrimidin-4-yl)piperazin-1-yl)but-2-en-1-one] | 2.9
121 | C=CC(=O)N1CC[C@@H](Nc2ncnc3[nH]c(C#Cc4cccc(F)c4)cc23)C1 [Example 61, (R)-1-(3-((6-((3-fluorophenyl)ethynyl)-7H-pyrrolo[2,3-d]pyrimidin-4-yl)amino)pyrrolidin-1-yl)prop-2-en-1-one] | 0.022
174 | C=CC(=O)N1CC[C@@H](Nc2ncnc3[nH]c(C#Cc4ccccc4Cl)cc23)C1 [Example 55, (R)-1-(3-((6-((2-chlorophenyl)ethynyl)-7H-pyrrolo[2,3-d]pyrimidin-4-yl)amino)pyrrolidin-1-yl)prop-2-en-1-one] | 0.195
3.5 | C=CC(=O)N1CC[C@@H](Nc2ncnc3[nH]c(C#Cc4ccc5c(c4)OCO5)cc23)C1 [Example 72, (R)-1-(3-((6-(benzo[d][1,3]dioxol-5-ylethynyl)-7H-pyrrolo[2,3-d]pyrimidin-4-yl)amino)pyrrolidin-1-yl)prop-2-en-1-one] | 0.0007
60 | O=C(/C=C/CN1CCOCC1)N1CCC(Nc2ncnc3[nH]c(C#CCOc4ccccc4)nc23)C1 (centres unmarked) [Example 11, (E)-4-morpholino-1-(3-((8-(3-phenoxyprop-1-yn-1-yl)-9H-purin-6-yl)amino)pyrrolidin-1-yl)but-2-en-1-one] | 1.17
155 | C=CC(=O)Nc1cccc(Nc2ncnc3[nH]c(C#Cc4ccc(Cl)cc4)cc23)c1 [Example 105, N-(3-((6-((4-chlorophenyl)ethynyl)-7H-pyrrolo[2,3-d]pyrimidin-4-yl)amino)phenyl)acrylamide] | 0.048
0.02 | C=CC(=O)N1CCC(Nc2ncnc3[nH]c(C#CCOc4ccccc4Cl)nc23)C1 (centres unmarked) [Example 18, 1-(3-((8-(3-(2-chlorophenoxy)prop-1-yn-1-yl)-9H-purin-6-yl)amino)pyrrolidin-1-yl)prop-2-en-1-one] | 0.002
187 | C=CC(=O)N1CC[C@@H](Nc2ncnc3[nH]c(C#Cc4cccc(C(F)(F)F)c4)cc23)C1 [Example 68, (R)-1-(3-((6-((3-trifluoromethylphenyl)ethynyl)-7H-pyrrolo[2,3-d]pyrimidin-4-yl)amino)pyrrolidin-1-yl)prop-2-en-1-one] | 0.003
22 | C=CC(=O)N1CCC(Nc2ncnc3[nH]c(C#CCOc4ccc(Cl)cc4)nc23)C1 (centres unmarked) [Example 19, 1-(3-((8-(3-(4-chlorophenoxy)prop-1-yn-1-yl)-9H-purin-6-yl)amino)pyrrolidin-1-yl)prop-2-en-1-one] | 0.148
0.3 | C=CC(=O)Nc1cccc(Nc2ncnc3[nH]c(C#Cc4ccccc4)cc23)c1 [Example 103, N-(3-((6-(phenylethynyl)-7H-pyrrolo[2,3-d]pyrimidin-4-yl)amino)phenyl)acrylamide] | 0.079
0.3 | C=CC(=O)N1CC[C@@H](Nc2ncnc3[nH]c(C#CCOc4cccc(F)c4F)nc23)C1 [Example 99, (R)-1-(3-((8-(3-(2,3-difluorophenoxy)prop-1-yn-1-yl)-9H-purin-6-yl)amino)pyrrolidin-1-yl)prop-2-en-1-one] | 0.001
0.14 | C=CC(=O)N1CC[C@@H](Nc2ncnc3[nH]c(C#CCOc4ccccc4Cl)cc23)C1 [Example 43, (R)-1-(3-((6-(3-(2-chlorophenoxy)prop-1-yn-1-yl)-7H-pyrrolo[2,3-d]pyrimidin-4-yl)amino)pyrrolidin-1-yl)prop-2-en-1-one] | 0.001
0.4 | CNC/C=C/C(=O)N1CCC(Nc2ncnc3[nH]c(C#CCOc4ccccc4)cc23)C1 (centres unmarked) [Example 35] | 0.95
0.6 | C=CC(=O)N1CCC(Nc2ncnc3[nH]c(C#CCOc4ccccc4F)nc23)C1 (centres unmarked) [Example 16, 1-(3-((8-(3-(2-fluorophenoxy)prop-1-yn-1-yl)-9H-purin-6-yl)amino)pyrrolidin-1-yl)prop-2-en-1-one] | 0.003
272 | C=CC(=O)N1CC[C@@H](Nc2ncnc3[nH]c(C#Cc4ccc(C(F)(F)F)cc4)cc23)C1 [Example 67, (R)-1-(3-((6-((4-trifluoromethylphenyl)ethynyl)-7H-pyrrolo[2,3-d]pyrimidin-4-yl)amino)pyrrolidin-1-yl)prop-2-en-1-one] | 0.004
< 0.03 | CN(C)C/C=C/C(=O)N1CC[C@@H](Nc2ncnc3[nH]c(C#CCOc4ccccc4F)cc23)C1 [Example 49, (R,E)-1-(3-((6-(3-(2-fluorophenoxy)prop-1-yn-1-yl)-7H-pyrrolo[2,3-d]pyrimidin-4-yl)amino)pyrrolidin-1-yl)-4-(dimethylamino)but-2-en-1-one] | 0.017
1.1 | C=CC(=O)N1CC[C@@H](Nc2ncnc3[nH]c(C#CCOc4ccccc4OC)cc23)C1 [Example 45, (R)-1-(3-((6-(3-(2-methoxyphenoxy)prop-1-yn-1-yl)-7H-pyrrolo[2,3-d]pyrimidin-4-yl)amino)pyrrolidin-1-yl)prop-2-en-1-one] | 0.0014
182 | C=CC(=O)N1CC[C@@H](Nc2ncnc3[nH]c(C#Cc4cccc(C)c4)cc23)C1 [Example 69, (R)-1-(3-((6-((3-methylphenyl)ethynyl)-7H-pyrrolo[2,3-d]pyrimidin-4-yl)amino)pyrrolidin-1-yl)prop-2-en-1-one] | 0.007
0.08 | CN(C)C/C=C/C(=O)N1CC[C@@H](Nc2ncnc3[nH]c(C#CCOc4ccccc4)cc23)C1 [Example 41, (R,E)-4-(dimethylamino)-1-(3-((6-(3-phenoxyprop-1-yn-1-yl)-7H-pyrrolo[2,3-d]pyrimidin-4-yl)amino)pyrrolidin-1-yl)but-2-en-1-one] | 0.069
24 | C=CC(=O)N1CC[C@@H](Nc2ncnc3[nH]c(C#Cc4cccc(Cl)c4)cc23)C1 [Example 57, (R)-1-(3-((6-((3-chlorophenyl)ethynyl)-7H-pyrrolo[2,3-d]pyrimidin-4-yl)amino)pyrrolidin-1-yl)prop-2-en-1-one] | 0.01
0.5 | C=CC(=O)N1CCC(Nc2ncnc3[nH]c(C#CCOc4ccc(F)cc4)nc23)C1 (centres unmarked) [Example 20, 1-(3-((8-(3-(4-fluorophenoxy)prop-1-yn-1-yl)-9H-purin-6-yl)amino)pyrrolidin-1-yl)prop-2-en-1-one] | 0.051
332 | O=C(/C=C/CN1CCOCC1)N1CCN(c2ncnc3[nH]c(C#CCOc4ccccc4)nc23)CC1 [Example 8, (E)-4-morpholino-1-(4-(8-(3-phenoxyprop-1-yn-1-yl)-9H-purin-6-yl)piperazin-1-yl)but-2-en-1-one] | 0.357
384 | C=CC(=O)N1CCC(N(C)c2ncnc3[nH]c(C#CCOc4ccccc4)cc23)C1 (centres unmarked) [Example 38, 1-(3-(methyl(6-(3-phenoxyprop-1-yn-1-yl)-7H-pyrrolo[2,3-d]pyrimidin-4-yl)amino)pyrrolidin-1-yl)prop-2-en-1-one] | 0.209
